“Also recorded” adds a separate entry of the source. Where a SMILES comes first, the peptide text is derived from it.
Experiments:
[1] = tested on: bleomycin-induced lung fibrosis; assay: Bleomycin-induced pulmonary fibrosis in mice, peptide given intratracheally; conditions: for lung fibrosis measured as lung hydroxyproline, second trial: 250 μg IT daily for two weeks starting day 7, n=6 (FIG. 6); for lung fibrosis on histology (H&E), second trial: 250 μg per day IT for 2 weeks starting day 7 (FIG. 5); for pulmonary fibrosis, summary statement: intra-tracheal administration to bleomycin-exposed mice
[2] = tested on: bleomycin-induced lung fibrosis; conditions: background statement; cited from earlier work
IMR-90 fibroblasts = assay: Scratch wound migration of IMR-90 fibroblasts and TGF-β1-differentiated myofibroblasts; format: cell-based, human; conditions: 100 μM Ac-PGP, 48 h
Experimental: FIGS. 11A-H show IMR-90 fibroblasts under different conditions. IMR-90 fibroblasts were grown to 80-90% confluence (A, C) and differentiated to myofibroblasts with TGF-β1 (E, G). A scratch was made and 100 μM Ac-PGP was added to some cells (FIGS. 11C, G).
(§1) The simplest explanation for this is a direct effect of Ac-PGP on the myofibroblast, altering its phenotype to stop or perhaps reverse fibrosis. […] Human lung fibroblasts were co-incubated with TGF-β and Ac-PGP and the effects on matrix generation and markers of MF activation and differentiation were observed.

[3] = tested on: IMR-90 fibroblasts differentiated to myofibroblasts; assay: Western blot of matrix and differentiation markers in IMR-90 myofibroblasts (TGF-β plus Ac-PGP); format: cell-based, human
Experimental: IMR-90 fibroblasts were differentiated to myofibroblasts with TGF-β 2.5 ng/ml. Ac-PGP at differing concentrations (0, 1, 3, 10 and 30 μg/ml) was added at the same time. Whole cell lysates were obtained after 48 h and probed by WB for the indicated proteins.
as §1

rhACE = rhACE (Homo sapiens, UniProt P12821); conditions: not told
Chain of rhACE (P12821 30-1306): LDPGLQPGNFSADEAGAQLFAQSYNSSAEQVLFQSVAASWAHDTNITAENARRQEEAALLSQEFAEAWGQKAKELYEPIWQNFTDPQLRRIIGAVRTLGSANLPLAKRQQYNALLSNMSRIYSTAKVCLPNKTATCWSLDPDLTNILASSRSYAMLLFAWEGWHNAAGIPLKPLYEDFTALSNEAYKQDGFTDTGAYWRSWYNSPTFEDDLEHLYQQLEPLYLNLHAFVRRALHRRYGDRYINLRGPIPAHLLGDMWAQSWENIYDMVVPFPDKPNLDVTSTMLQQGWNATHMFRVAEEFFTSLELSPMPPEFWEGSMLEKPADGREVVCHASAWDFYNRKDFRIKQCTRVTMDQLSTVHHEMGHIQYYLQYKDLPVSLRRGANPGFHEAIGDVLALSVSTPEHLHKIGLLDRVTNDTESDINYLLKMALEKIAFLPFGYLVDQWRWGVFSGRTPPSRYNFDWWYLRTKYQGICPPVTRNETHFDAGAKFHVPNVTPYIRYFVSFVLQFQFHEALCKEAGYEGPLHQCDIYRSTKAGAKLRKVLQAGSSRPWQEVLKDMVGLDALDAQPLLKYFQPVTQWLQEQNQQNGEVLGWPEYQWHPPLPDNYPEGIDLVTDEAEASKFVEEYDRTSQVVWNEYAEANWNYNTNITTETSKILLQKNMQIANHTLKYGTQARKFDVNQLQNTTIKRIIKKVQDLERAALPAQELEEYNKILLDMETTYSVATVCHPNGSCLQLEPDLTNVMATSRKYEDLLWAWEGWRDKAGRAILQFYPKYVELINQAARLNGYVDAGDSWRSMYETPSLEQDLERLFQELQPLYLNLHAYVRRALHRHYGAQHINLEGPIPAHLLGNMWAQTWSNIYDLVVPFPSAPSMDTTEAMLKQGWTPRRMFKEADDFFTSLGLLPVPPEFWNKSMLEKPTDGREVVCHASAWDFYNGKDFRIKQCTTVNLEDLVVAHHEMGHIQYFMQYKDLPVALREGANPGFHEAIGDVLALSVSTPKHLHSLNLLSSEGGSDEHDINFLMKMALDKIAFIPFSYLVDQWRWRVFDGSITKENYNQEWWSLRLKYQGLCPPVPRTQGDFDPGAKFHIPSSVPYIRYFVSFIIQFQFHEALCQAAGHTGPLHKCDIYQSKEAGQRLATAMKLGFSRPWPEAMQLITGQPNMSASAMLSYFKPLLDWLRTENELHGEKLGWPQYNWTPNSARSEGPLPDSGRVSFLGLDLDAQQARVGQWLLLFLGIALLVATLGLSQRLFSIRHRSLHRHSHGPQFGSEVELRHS

[4] = tested on: CXC receptors on neutrophils; conditions: Haddox et al. 1999; cited from earlier work
[5] = TGF-β 2.5 ng/ml, Ac-PGP 1-30 μg/ml, 48 h, WB

Ac-PGP breakdown by rhACE (in words) (rhACE)	Structure (SMILES)	lung fibrosis measured as lung hydroxyproline, second trial [1]	lung fibrosis on histology (H&E), second trial [1]	pulmonary fibrosis, summary statement [1]	fibrosis in the bleomycin model [2]	migration of un-differentiated fibroblasts across the wound (IMR-90 fibroblasts)	migration of myofibroblasts across the wound (IMR-90 fibroblasts; TGF-β1-differentiated)	myofibroblast differentiation and pro-fibrotic functions in vitro, summary statement [3]	SRC phosphorylation [3, 5]	collagen expression [3, 5]	fibronectin expression [3, 5]	α-SMA expression [3, 5]	dose giving the greatest inhibition of myofibroblasts ([3]; lesser effects at 30 and 10 μg/ml) [µg/mL]	potency relative to PGP [4]	effectiveness on lung fibrosis measured as lung hydroxyproline ([1]; 125 μg per day IT, days 7 to 21, n=8 (FIG. 4))	effectiveness at abrogating bleomycin-induced pulmonary fibrosis, second trial ([1]; 250 μg IT daily (FIG. 5)) [%]	lung fibrosis measured as lung hydroxyproline ([1]; 250 μg IT daily for two weeks starting day 7, n=8 (FIG. 4))	lung fibrosis on lung histology (H&E) ([1]; Ac-PGP 125 μg IT per day, days 7 to 21 after bleomycin (FIG. 3))	lung fibrosis on lung histology (H&E) ([1]; Ac-PGP 250 μg IT daily for two weeks starting day 7 after bleomycin, vs PBS-treated controls (FIG. 3))
	O=C(NCC(=O)N1CCC[C@H]1C(=O)O)[C@@H]1CCCN1 [PGP, proline-glycine-proline] (H-Pro-Gly-Pro-OH; C-terminus assumed)	less effective	partially effective; also recorded: half as effective	partial effect															
	C[C@H](CS)C(=O)N1CCC[C@H]1C(=O)O [Captopril, reference compound]				reduces fibrosis														
degraded	CC(=O)N1CCC[C@H]1C(=O)NCC(=O)N1CCC[C@H]1C(=O)O [Ac-PGP, N-acetyl-proline-glycine-proline] (Ac-Pro-Gly-Pro-OH; C-terminus assumed)	almost completely abrogates	abrogates	abrogated pulmonary fibrosis dose-dependently; also recorded: dramatic inhibition of fibrosis; also recorded: greatly reduces fibrosis		did not affect; also recorded: but not fibroblasts	markedly reduced; also recorded: inhibited migration	inhibited myofibroblast differentiation and pro-fibrotic functions	reduced	reduced	reduced	reduced	3	several times more potent	about 50%	~100	almost completely abrogates	intermediate effect; also recorded: about half as effective	almost completely abrogates lung fibrosis; also recorded: almost completely abrogated

Reference: patent US10335448B2, “Compositions and methods for inhibiting fibrosis” (The UAB Research Foundation, priority 2014, dated 2019)
